Literature values in patent US12471595B2, “Liquid pesticidal composition” (SUMITOMO CHEMICAL COMPANY, LIMITED, priority 2019, dated 2025).

Assays:
[1] = 1-octanol/water
[2] = pH7

| SMILES | log P at 25° C. [1] | Water solubility at 25° C. [2] |
| --- | --- | --- |
| CCOC(=O)COc1ncccc1Oc1cc(-n2c(=O)cc(C(F)(F)F)n(C)c2=O)c(F)cc1Cl [Compound A, Ethyl 2-[(3-{2-chloro-4-fluoro-5-[3-methyl-4-(trifluoromethyl)-2,6-dioxo-1,2,3,6-tetrahydropyrimidin-1(2H)-yl]phenoxy}pyridin-2-yl)oxy]acetate] | 3.5 | 2.0 mass ppm |
| CC(O)(Cn1cncn1)c1ccc(Oc2ccc(Cl)cc2)cc1C(F)(F)F (stereo not shown) [Mefentrifluconazole] | 3.4 | 0.81 mass ppm |
| CON(C(=O)c1cn(C)nc1C(F)F)C(C)Cc1c(Cl)cc(Cl)cc1Cl (stereo not shown) [Pydiflumetofen] | 3.8 | 1.5 mass ppm |
| COC(=O)N(OC)c1ccccc1COc1ccn(-c2ccc(Cl)cc2)n1 [Pyraclostrobin] | 4.0 | 1.9 mass ppm |
| Cc1nnc(Cl)c(-c2c(F)cccc2F)c1-c1ccccc1 [Pyridachlometyl] | 4.1 | 0.6 mass ppm |
